Patent EP4793277A1, “CARBOXYLIC ACID COMPOUND AND PREPARATION METHOD THEREFOR AND USE THEREOF” (Nutshell Therapeutics (Shanghai) Co., Ltd., priority 2023, dated 2025)
Read-outs that look alike come from different tables or passages of the source.

Key:
CYP3A4/5 [1] = assay: Multi-concentration inhibitory activity curve of CYP3A4/5 enzymes (liver microsomes); format: in vitro ADME; details: human liver microsomes
Method: • 1. Experimental purpose: To determine the concentration inhibitory activity curve of compounds on CYP3A4/5 enzymes. • 2. Experimental instrument and materials:
(§1) The mixture was added with HCl to adjust the pH to 7.4 and brought to a final volume of 1000 mL with water.
Liver microsomes were thawed in a water bath at 37°C prior to use. […] A 5 mM NADPH working solution was prepared in phosphate-buffered saline. […] The above stock solution was diluted with acetonitrile (4-fold dilution, 6 non-zero concentrations).
(§2) 300 µL of the supernatant was aliquoted for further LC-MS/MS analysis.
The half-maximal inhibitory concentration (IC50) was calculated using Graph Pad Prism. Table 3: Inhibitory activity of compounds on CYP3A4/5 enzymes

p53 Y220C mutant = biological target: T1, p53 Y220C mutant (Homo sapiens, UniProt P04637, Y220C); assay: HTRF assay: compounds promoting the binding of p53 Y220C mutant with DNA; format: biochemical; details: HTRF/FRET; His-tagged p53 Y220C (94-312) with biotin-labeled DNA; incubated overnight
T1 construct: Recombinant His-tagged p53 Y220C (94-312) used for HTRF assays was expressed in E. coli; made in house; host or cells: E. coli
Method: Homogeneous time-resolved fluorescence (HTRF) assay was used to measure the reactivation effect of compounds on the p53 Y220C mutant. Recombinant His-tagged p53 Y220C (94-312) used for HTRF assays was expressed in E. coli and purified to 90% purity using a Ni-NTA column. The biotin-labeled DNA used for HTRF assays was synthesized by Pharmaron Inc, with the specific sequence of 5'-[…]-3'.
The binding of recombinant His-tagged p53 Y220C protein with biotin-labeled DNA was measured using fluorescence resonance energy transfer (FRET). For FRET assays, the binding between the p53 mutant and the DNA sequences was measured by detecting the fluorescence of the interaction between Eu-conjugated anti-His antibody (Cisbio, 61HI2KLA) and d2-conjugated streptavidin (Cisbio, 610SADLF) bound to a biotin-labeled DNA molecule. Compounds were prepared as 2 mM stock solutions and serially diluted 1:3 in DMSO to obtain 10 concentrations. Each compound at 200× working concentration was sequentially diluted to 4× working concentration. 4 µL of compound solution was transferred row-by-row to a 384-well assay plate using Echo, with 2 replicates per column. Subsequently, 4 µL of p53 solution was added to the assay plate, followed by 4 µL of biotinylated DNA solution, and then 4 µL of assay solution (His-Eu antibody and streptavidin-d2) was added to each well. The assay plate was incubated overnight in the dark. Fluorescence was read on a BMG microplate reader (BMG LABTECH).
The ratio for each well was calculated (ratio_665 nm/615 nm - ratio_background). The activity (%) was calculated as follows: C = (Ave_Ac−Ave_Ba)/(Ave_Dc−Ave_Bd) [formula] R data = (A−Ave_Ba−C×D)/(D−Ave_Bd) × (Ave_Dc−Ave_Bd) [formula] Activity (%) = R data/Ave_VC × 100. [formula] • A: fluorescence intensity of the sample at 665 nm; • D: fluorescence intensity of the sample at 615 nm; • Ba: fluorescence intensity of the plate background at 665 nm; • Bd: fluorescence intensity of the plate background at 615 nm; • Dc: fluorescence intensity of HIS-Eu background at 615 nm; • Ac: fluorescence intensity of streptavidin-d2 background at 665 nm; • VC: DMSO treatment group.
SC150 was calculated using GraphPad 8.0 to fit the logarithm of activity (%) versus compound concentration to a nonlinear regression (dose response-variable slope). Table 1: Activity of compounds promoting the binding of p53 Y220C mutant with DNA

hERG potassium channel = biological target: T2, hERG potassium channel (Homo sapiens, UniProt Q12809); assay: Manual patch-clamp test of the inhibitory activity on hERG potassium channel; format: cell-based; details: HEK293 cell line stably expressing the hERG ion channel, five concentrations 0.37 to 30 µM, n = 2
T2 construct: host or cells: HEK293
Method: This experiment was conducted to evaluate the effect of compounds in five concentrations on hERG channel current, obtaining a dose-effect curve and calculating the IC50.
Cell line and cell culture: HEK293 cell line stably expressing the hERG ion channel (Cat. No.: K1236) was purchased from Invitrogen. The cell line was cultured in medium containing 85% DMEM, 10% dialyzed fetal bovine serum, 0.1 mM non-essential amino acid solution, 100 U/mL penicillin-streptomycin solution, 25 mM HEPES, 5 µg/mL blasticidin, and 400 µg/mL geneticin. When the cell density grew to 40% to 80% of the bottom area of the culture dish, the cells were digested with trypsin and passaged three times per week. Prior to the experiment, the cells were cultured at a density of 5 × 10^5 cells per 3.5 cm culture dish, induced with 1 µg/mL doxycycline for 48 hours, followed by digestion, and seeded onto glass slides for subsequent manual patch-clamp experiments.
Solution preparation: Extracellular fluid (in mM): 132 sodium chloride, 4 potassium chloride, 3 calcium chloride, 0.5 magnesium chloride, 11.1 glucose, and 10 HEPES (pH adjusted to 7.35 with sodium hydroxide). Intracellular fluid (in mM): 10 EGTA, 10 HEPES, 10 potassium chloride, 10 sodium chloride, and 110 potassium fluoride (pH adjusted to 7.2 with potassium hydroxide). Osmolality of the solutions was controlled between 280 and 300 mOsmol/kg. The solutions were filtered and stored at 4°C prior to use.
Preparation of test compound solutions: Following the standard operating procedures, test compounds were dissolved in DMSO and prepared into a stock solution with a final concentration of 10 mM. The stock solution was serially diluted 1:3 in DMSO as the solvent to obtain three intermediate solutions with concentrations of 3.33, 1.11, and 0.37 mM. Prior to the experiment, the test compound intermediate solutions were further diluted 1:1000 with extracellular fluid to prepare a series of working solutions. […]

NUGC-3 cells = assay: Anti-proliferation effect on NUGC-3 cells (Cell Counting Kit-8); format: cell-based; details: Homo sapiens, NUGC-3, 120 h, 5 days of treatment
Method: Cell line NUGC-3 (JCRB, JCRB0822) was cultured in RPMI 1640 medium (Invitrogen, 11875-085) supplemented with 10% (v/v) fetal bovine serum (BI, 04-002-1A), according to the standard instructions of the American Type Culture Collection. The cell line was authenticated by short tandem repeat profiling.
In the proliferation assay, 1000 NUGC-3 cells were seeded in a 96-well flat clear bottom, TC-treated plate (Corning, 3903) in 200 µL of medium per well, and allowed to recover overnight in culture medium. Compounds were added with increasing concentration, with DMSO treatment serving as a […]. After 5 days of treatment, the plate was equilibrated to room temperature for 30 minutes, and the number of living cells was measured by the addition of the Cell Counting Kit-8 reagent (MCE, HY-K0301). Absorbance was measured on an EnSpire microplate reader (PerkinElmer). The relative viability of each group was presented as the percentage change relative to the […] group and then fit to a four-parameter logit non-linear curve using the program XLFit (IDBS). Table 2: Anti-proliferation activity of compounds on NUGC-3 cells

CYP3A4/5 [2] = assay: Inhibitory activity on CYP isoenzymes at a single concentration (liver microsomes); format: in vitro ADME; details: Final compound concentration: 10 µM, human liver microsomes
Method: • 1. […] Experimental instrument and reagents:
as §1
Liver microsomes were thawed in a water bath at 37°C prior to use. […] A 5 mM NADPH working solution was prepared in phosphate-buffered saline.
as §2
Table 3: Inhibitory activity of compounds on CYP isoenzymes*

CYP2D6 = biological target: T3, CYP2D6 (Homo sapiens, UniProt P10635); assay: as above; format: in vitro ADME; details: pH 7.4, probe dextromethorphan, Final compound concentration: 10 µM, substrate Dextromethorphan, read-out: Inhibition rate (%) CYP2D6
T3 construct: Liver microsomes were thawed in a water bath at 37°C prior to use; from tissue; host or cells: liver microsomes
Method: (§3) • 1. […] Experimental instrument and reagents: [table] […] The mixture was added with HCl to adjust the pH to 7.4 and brought to a final volume of 1000 mL with water. […] [table] [table] Liver microsomes were thawed in a water bath at 37°C prior to use. […] A 5 mM NADPH working solution was prepared in phosphate-buffered saline. […] 300 µL of the supernatant was aliquoted for further LC-MS/MS analysis. […] Table 3: Inhibitory activity of compounds on CYP isoenzymes*

CYP2C9 = biological target: T4, CYP2C9 (Homo sapiens, UniProt P11712); assay: as above; format: in vitro ADME; details: pH 7.4, probe diclofenac, Final compound concentration: 10 µM, substrate Diclofenac, read-out: Inhibition rate (%) CYP2C9
T4 construct: Liver microsomes were thawed in a water bath at 37°C prior to use; from tissue; host or cells: liver microsomes
Method: as §3

CYP2C19 = biological target: T5, CYP2C19 (Homo sapiens, UniProt P33261); assay: as above; format: in vitro ADME; details: pH 7.4, probe mephenytoin, Final compound concentration: 10 µM, substrate Mephenytoin, read-out: Inhibition rate (%) CYP2C19
T5 construct: Liver microsomes were thawed in a water bath at 37°C prior to use; from tissue; host or cells: liver microsomes
Method: as §3

CYP1A2 = biological target: T6, CYP1A2 (Homo sapiens, UniProt P05177); assay: as above; format: in vitro ADME; details: pH 7.4, probe phenacetin, Final compound concentration: 10 µM, substrate Phenacetin, read-out: Inhibition rate (%) CYP1A2
T6 construct: from tissue; host or cells: liver microsomes
T6 sequence (P05177 1-516): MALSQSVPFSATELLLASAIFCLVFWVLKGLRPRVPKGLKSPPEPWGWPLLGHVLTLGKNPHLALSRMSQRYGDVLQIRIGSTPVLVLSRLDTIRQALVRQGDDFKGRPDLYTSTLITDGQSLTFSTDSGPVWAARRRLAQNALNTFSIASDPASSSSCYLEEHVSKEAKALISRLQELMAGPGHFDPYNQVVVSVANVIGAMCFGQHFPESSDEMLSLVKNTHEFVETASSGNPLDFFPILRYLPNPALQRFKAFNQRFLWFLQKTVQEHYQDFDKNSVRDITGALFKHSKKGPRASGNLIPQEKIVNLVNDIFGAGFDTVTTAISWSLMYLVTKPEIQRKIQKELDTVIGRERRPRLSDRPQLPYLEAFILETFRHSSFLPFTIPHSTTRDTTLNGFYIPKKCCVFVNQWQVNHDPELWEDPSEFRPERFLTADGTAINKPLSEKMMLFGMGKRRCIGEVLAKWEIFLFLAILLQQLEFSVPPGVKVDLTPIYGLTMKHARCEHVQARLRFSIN
Method: as §3

[3] = pH 7.4, probe midazolam, midazolam as substrate
[4] = pH 7.4, probe testosterone, testosterone as substrate
[5] = pH 7.4, probe midazolam, substrate Midazolam, read-out: Inhibition rate (%) CYP3A4/5 (Midazolam)
[6] = pH 7.4, probe testosterone, substrate Testosterone, read-out: Inhibition rate (%) CYP3A4/5 (Testosterone)

T2 sequence (Q12809 whole entry): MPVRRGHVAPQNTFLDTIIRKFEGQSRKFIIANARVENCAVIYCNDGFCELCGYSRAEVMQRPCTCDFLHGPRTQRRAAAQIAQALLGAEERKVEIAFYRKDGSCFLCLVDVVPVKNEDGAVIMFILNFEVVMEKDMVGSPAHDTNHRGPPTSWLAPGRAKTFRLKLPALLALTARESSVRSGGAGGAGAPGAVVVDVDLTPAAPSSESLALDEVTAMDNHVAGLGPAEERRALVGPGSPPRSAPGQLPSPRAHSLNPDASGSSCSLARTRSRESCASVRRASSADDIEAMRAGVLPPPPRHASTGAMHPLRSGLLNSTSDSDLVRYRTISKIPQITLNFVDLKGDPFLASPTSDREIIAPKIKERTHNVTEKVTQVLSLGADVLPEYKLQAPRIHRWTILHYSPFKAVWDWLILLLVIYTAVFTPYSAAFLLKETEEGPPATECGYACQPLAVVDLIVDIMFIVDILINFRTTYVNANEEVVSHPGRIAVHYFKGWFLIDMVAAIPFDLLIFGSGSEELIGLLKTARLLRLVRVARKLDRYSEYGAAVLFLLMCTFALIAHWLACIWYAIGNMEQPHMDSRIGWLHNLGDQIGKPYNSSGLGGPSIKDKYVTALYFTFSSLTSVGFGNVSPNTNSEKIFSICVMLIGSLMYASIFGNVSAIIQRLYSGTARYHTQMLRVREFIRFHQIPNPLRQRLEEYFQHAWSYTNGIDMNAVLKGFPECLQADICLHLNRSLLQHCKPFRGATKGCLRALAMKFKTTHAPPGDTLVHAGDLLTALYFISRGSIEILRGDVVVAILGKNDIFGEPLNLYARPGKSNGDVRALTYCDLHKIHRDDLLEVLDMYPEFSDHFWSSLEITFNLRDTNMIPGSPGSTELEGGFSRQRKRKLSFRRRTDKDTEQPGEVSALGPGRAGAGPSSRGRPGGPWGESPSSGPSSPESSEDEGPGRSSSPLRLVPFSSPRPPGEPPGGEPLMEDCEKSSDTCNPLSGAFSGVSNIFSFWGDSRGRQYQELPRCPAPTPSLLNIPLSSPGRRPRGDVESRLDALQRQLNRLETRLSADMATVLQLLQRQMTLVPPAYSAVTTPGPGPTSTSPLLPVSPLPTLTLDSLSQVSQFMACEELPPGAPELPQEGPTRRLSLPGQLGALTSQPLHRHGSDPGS
T4 sequence (P11712 whole entry): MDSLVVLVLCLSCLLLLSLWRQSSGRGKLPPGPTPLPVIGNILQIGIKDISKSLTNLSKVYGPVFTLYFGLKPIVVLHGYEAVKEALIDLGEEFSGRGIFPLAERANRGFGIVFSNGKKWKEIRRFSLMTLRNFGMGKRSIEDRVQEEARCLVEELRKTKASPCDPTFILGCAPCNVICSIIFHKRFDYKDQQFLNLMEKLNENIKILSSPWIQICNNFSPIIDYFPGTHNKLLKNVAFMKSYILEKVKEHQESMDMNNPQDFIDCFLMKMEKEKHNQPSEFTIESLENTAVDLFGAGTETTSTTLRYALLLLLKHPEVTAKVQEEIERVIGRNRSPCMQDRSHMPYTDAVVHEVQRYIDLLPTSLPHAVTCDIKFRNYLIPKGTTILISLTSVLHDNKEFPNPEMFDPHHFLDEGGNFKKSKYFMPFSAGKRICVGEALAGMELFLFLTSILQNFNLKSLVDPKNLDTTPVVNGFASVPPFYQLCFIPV
T3 sequence (P10635 whole entry): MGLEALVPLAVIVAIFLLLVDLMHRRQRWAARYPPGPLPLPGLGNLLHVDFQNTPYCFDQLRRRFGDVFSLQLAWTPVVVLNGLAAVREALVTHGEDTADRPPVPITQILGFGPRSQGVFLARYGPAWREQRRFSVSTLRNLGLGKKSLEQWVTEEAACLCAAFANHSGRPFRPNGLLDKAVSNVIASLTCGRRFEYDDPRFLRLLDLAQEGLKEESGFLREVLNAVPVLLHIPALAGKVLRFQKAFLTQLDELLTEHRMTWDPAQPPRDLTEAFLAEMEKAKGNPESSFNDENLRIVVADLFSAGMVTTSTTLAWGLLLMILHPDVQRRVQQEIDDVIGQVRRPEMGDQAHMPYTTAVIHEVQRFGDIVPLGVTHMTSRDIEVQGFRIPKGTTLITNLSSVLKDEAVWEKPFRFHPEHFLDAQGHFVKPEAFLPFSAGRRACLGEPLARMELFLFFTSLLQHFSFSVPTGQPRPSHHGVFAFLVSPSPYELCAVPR
T5 sequence (P33261 whole entry): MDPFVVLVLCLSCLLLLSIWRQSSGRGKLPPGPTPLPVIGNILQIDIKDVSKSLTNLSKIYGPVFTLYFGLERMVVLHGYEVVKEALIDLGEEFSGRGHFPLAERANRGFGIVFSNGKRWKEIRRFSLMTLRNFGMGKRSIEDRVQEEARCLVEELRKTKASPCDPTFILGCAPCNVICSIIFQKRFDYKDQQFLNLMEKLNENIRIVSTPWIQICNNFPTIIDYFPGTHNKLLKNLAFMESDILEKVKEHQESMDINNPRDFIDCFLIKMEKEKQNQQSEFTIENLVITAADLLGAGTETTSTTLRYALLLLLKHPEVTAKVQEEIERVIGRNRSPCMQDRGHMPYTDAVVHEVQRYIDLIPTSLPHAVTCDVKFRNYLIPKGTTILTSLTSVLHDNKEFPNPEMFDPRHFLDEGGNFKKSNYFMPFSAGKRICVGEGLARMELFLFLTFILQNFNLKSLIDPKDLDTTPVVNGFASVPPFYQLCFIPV

Row | SMILES | IC50 at 10 min (CYP3A4/5 [1]; [3]) | IC50 at 10 min (CYP3A4/5 [1]; [4]) | SC150 (p53 Y220C mutant) | IC50 (hERG potassium channel) | IC50 (NUGC-3 cells) | inhibition at 10 min, 10 µM (CYP3A4/5 [2]; [5]) | inhibition at 10 min, 10 µM (CYP3A4/5 [2]; [6]) | inhibition at 10 min, 10 µM (CYP2D6) | inhibition at 10 min, 10 µM (CYP2C9) | inhibition at 10 min, 10 µM (CYP2C19) | inhibition at 10 min, 10 µM (CYP1A2)
1 | [2H]C([2H])([2H])Oc1nc(C(=O)O)ccc1NCC#Cc1cc2c(N[C@@H]3CCN(C)C[C@@H]3F)cccn2c1CC(F)(F)F [Cpd-1, 5-((3-(8-(((3S,4R)-3-Fluoro-1-methylpiperidin-4-yl)amino)-3-(2,2,2-trifluoroethyl)indolizin-2-yl)prop-2-yn-1-yl)amino)-6-(methoxy-d3)picolinic acid] | > 50000 nM | > 50000 nM | 0.4 nM | > 30000 nM | 100 nM | 3.4% | < 0% | 2.6% | < 0% | 5.5% | 6.3%
2 | COc1nc(C(=O)O)ccc1NCC#Cc1cc2c(N[C@@H]3CCN(C)C[C@@H]3F)cccn2c1CC(F)(F)F [Cpd-2, 5-((3-(8-(((3S,4R)-3-Fluoro-1-methylpiperidin-4-yl)amino)-3-(2,2,2-trifluoroethyl)indolizin-2-yl)prop-2-yn-1-yl)amino)-6-methoxypicolinic acid] | > 50000 nM | > 50000 nM | 0.5 nM | > 30000 nM | 120 nM | < 0% | 1.7% | 0.73% | < 0% | 1.9% | 1.2%
3 | CNC(=O)c1ccc(NCC#Cc2cc3c(N[C@@H]4CCN(C)C[C@@H]4F)cccc3n2CC(F)(F)F)c(OC)c1 [Cpd-A] | 2300 nM | 890 nM | 10 nM | 19000 nM | 780 nM | 83% |  | 5.5% | 38% | 42% | 12%
4 | COc1cc(S(C)(=O)=O)ccc1NCC#Cc1nc2c(N[C@@H]3CCN(C)C[C@@H]3F)cccn2c1CC(F)(F)F [Cpd-B] |  |  | 15 nM |  | 360 nM | 61% | 75% | 3.6% | 21% | 31% | 0.56%
5 | CNC(=O)c1ccc(NCC#Cc2cc3c(N[C@@H]4CCN(C)C[C@@H]4F)cccn3c2CC(F)(F)F)c(OC)c1 [Cpd-C, 4-((3-(8-(((3S,4R)-3-Fluoro-1-methylpiperidin-4-yl)amino)-3-(2,2,2-trifluoroethyl)indolizin-2-yl)prop-2-yn-1-yl)amino)-3-methoxy-N-methylbenzamide] | 3800 nM |  | 4.6 nM |  | 230 nM | 79% |  | 9.5% | 43% | 67% | 18%
